# Experimental data from patent publication US20190212343A1, “METHODS FOR THE TREATMENT OF DISORDERS RELATED TO PHOSPHORYLATION OF HISTONES” (H. LEE MOFFITT CANCER CENTER AND RESEARCH INSTITUTE, INC., priority 2014, published 2019).
# Assays:
# [1] = tested on: AR and H3K4me3 at intron 2 of AR gene; test: ChIP with AR or H3K4me3 antibodies and qPCR at intron 2 of AR gene; assay type: cell-based, human; conditions: LNCaP cells, absence of androgen
# Method: LNCaP cells treated with AIM-100 and ChIP was performed using AR, H3K4me3 or IgG antibodies followed by qPCR using primers corresponding to intron 2, or control region. *p<0.05, **p<0.05.
# [2] = tested on: LNCaP cells; test: Cell proliferation assay, viable cells counted by trypan blue exclusion; assay type: cell-based, human; conditions: charcoal stripped media, 36 hrs, read-out: IC50, inhibition of cell growth
# Method: (§1) FIGS. 5A and 5B show cell proliferation assay. (FIG. 5A) LNCaP and (FIG. 5B) VCaP cells were grown in charcoal stripped media and treated with 1, 2.5, 5 and 10 uM of inhibitors (36 hrs) and number of viable cells were counted by trypan blue exclusion assay
# (§2) Applicant also assessed ability of the new Ack1 inhibitors to suppress proliferation of prostate cancer cell lines. […] Overall, it appears that ACK I is needed for androgen-independent growth of prostate cancer cells.
# [3] = tested on: VCaP cells; test: as above; assay type: cell-based, human; conditions: androgen-independent VCaP cells, charcoal stripped media, 36 hrs; read-out: IC50, inhibition of cell growth
# Method: as §1, §2
# [4] = molecular target: T1, ACK1 (Homo sapiens, UniProt Q07912); test: In vitro kinase assay with purified ACK1 and H4, immunoblotting with pTyr antibodies; assay type: biochemical; conditions: purified ACK1 and H4, AIM-100 100 nM
# T1 construct: made in house; host or cells: insect cells
# Method: FIGS. 9A-9E show ACK1 phosphorylates histone H4 at Tyrosine 88. (FIG. 9A) peptide were spotted followed by immunoblotting with indicated antibodies. (FIG. 9B) Equimolar amounts of purified ACK1 and H4 proteins were incubated in the presence of AIM-100 (100 nM) and reaction subjected to immunoblotting with pTyr antibodies. (FIG. 9C) In vitro kinase assay performed using purified ACK1 and H4, followed by immunoblotting with pY88-H4 antibodies. (FIG. 9D) H4 Y88-phosphorylation in vivo. LNCaP cells were treated with DZI-067, AIM-100 or Enzalutamide (7 uM, 16 hrs). The nuclear lysates were immunoprecipitated with pY88-H4 antibodies followed by immunoblotting with H4. Lower panel is input lysate. (FIG. 9E) LNCaP cells were treated with Crizotinib (1 uM, 16 hrs). The cell lysates were immunoprecipitated with pY88-H4 antibodies followed by immunoblotting with H4 (upper panel). Lower panel is input lysate immunblotted with H4 antibodies.
# To assess direct binding of Ack1 to H4, in vitro kinase assay was performed using purified Ack1 and H4 (New England Biolabs). Human Ack1 were expressed in insect cells and purified to homogeneity (unpublished data). Immunoblotting with pY88-H4 and pTyr antibodies confirmed that indeed H4 is directly Tyr-phosphorylated by Ack1 (FIG. 9B).
# [5] = tested on: pY88-H4 epigenetic marks in AR gene; test: ChIP with pY88-H4 antibodies and real time PCR at the AR gene; assay type: cell-based, human; conditions: LNCaP and VCaP cells grown in the absence of androgen
# Method: FIGS. 10A-10C show H4 Y88-phosphorylation occurs within and downstream of AR gene. (FIG. 10A) The human AR gene and two pY88-H4 binding sites are shown. (FIG. 10B) VCaP and (FIG. 10C) LNCaP cells treated with ACK1 inhibitor; ChIP was performed followed by qPCR using primers corresponding to promoter, intron 2, 3′UTR or control region. VCaP: *p<0.05, **p<0.05; LNCaP: *p<0.05, **p<0.05
# To determine whether ACK1 modifies chromatin at AR gene locus, LNCaP and VCaP cells grown in the absence of androgen and were treated with AIM-100. Chromatin immunoprecipitation (ChIP) was performed using pY88-H4 antibodies, followed by real time PCR with primers corresponding to the AR promoter, intron 2 and 3′UTR (FIG. 10A). […] These marks were also deposited at 3′UTR of the AR gene but not at the promoter region (FIGS. 10B and 10C).
# T1 sequence (Q07912 whole entry): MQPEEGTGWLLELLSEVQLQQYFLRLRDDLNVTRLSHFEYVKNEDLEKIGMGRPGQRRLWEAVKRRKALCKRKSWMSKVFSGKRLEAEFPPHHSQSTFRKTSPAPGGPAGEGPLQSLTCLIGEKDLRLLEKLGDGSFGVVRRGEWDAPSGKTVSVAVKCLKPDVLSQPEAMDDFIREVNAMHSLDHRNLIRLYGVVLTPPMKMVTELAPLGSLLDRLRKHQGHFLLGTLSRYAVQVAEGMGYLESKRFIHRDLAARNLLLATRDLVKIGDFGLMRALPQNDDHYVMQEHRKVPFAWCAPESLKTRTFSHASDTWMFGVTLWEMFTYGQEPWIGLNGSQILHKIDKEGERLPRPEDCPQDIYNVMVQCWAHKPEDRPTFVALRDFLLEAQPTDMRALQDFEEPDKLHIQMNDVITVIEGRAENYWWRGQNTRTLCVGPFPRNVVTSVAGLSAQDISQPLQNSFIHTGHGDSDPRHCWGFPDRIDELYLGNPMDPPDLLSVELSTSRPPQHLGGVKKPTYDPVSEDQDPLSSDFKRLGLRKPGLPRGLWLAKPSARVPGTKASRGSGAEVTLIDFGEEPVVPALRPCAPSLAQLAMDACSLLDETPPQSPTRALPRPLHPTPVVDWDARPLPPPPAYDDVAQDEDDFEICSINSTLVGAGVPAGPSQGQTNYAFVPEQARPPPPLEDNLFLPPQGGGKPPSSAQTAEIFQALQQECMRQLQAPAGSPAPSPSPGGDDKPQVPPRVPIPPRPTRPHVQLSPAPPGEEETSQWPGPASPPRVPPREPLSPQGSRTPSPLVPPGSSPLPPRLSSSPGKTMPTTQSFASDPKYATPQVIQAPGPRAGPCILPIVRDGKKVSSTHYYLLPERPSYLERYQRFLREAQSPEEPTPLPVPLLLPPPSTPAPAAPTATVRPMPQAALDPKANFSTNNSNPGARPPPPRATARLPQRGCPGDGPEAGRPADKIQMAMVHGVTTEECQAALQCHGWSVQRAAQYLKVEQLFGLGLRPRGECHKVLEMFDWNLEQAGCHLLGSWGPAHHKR
smiles,measurement,setting,value
c1ccc(-c2oc3ncnc(NC[C@@H]4CCCO4)c3c2-c2ccccc2)cc1 [AIM-100],AR enrichment at intron 2 of AR gene,[1],abolished
same,H3K4me3 methyl marks at intron 2 of AR gene,[1],abolished
same,IC50,[2],7 µM
same,IC50,[3],4 µM
same,H4 Tyr-phosphorylation by ACK1,[4],H4 Tyr-phosphorylation is abrogated
same,"pY88-H4 epigenetic marks at AR gene (intron 2, 3′UTR)",[5],erased
